# Like-named read-outs stand apart in the source and are kept apart here.
# Key:
# [1] = system: transglutaminase (TGase I); test: Transglutaminase (Tgase) ELISA assay in cultured keratinocytes with retinol and boosters; format: cell-based, human; details: for TG as % C, Compd 3: Compound 3 alone; for TG as % C, Compd 3 / TG as % C Compd 1 / TG as % C Compd 2: concentration one log below IC20; for IC20: IC20 (80% of control)
# Procedure: For this reason, a transalutaminase (Tgase) assay was utilised.
# Thus TGase I is a useful marker of epidermal keratinocyte differentiation with high TGase I levels indicating a more differentiated state. An ELISA based TGase I assay, using a TGase I antibody, was used to assess the state of differentiation of the cultured keratinocytes in the examples that follow.
# Keratinocytes (cultured as described above) were plated in 96 well plates at a density of 4,000-5,000 cells per well in 200 μl media. After incubation for two to three days, or until cells are ˜50% confluent, the media was changed to media containing test compounds (five replicates per test). The cells were cultured for a further 96 hours after which time the media was aspirated and the plates stored at −70° C. Plates were removed from the freezer, and the cells were washed twice with 200 μl of 1×PBS. The cells were incubated for one hour at room temperature (R/T) with TBS/5% BSA (wash buffer, bovine serum albumin). Next the TGase primary antibody was added: 50 μl of monoclonal anti-Tgase I Ab B.C. diluted 1:2000 in wash buffer. The primary antibody was incubated for 2 hours at 37° C. and then rinsed 6× with wash buffer. Cells were then incubated with 50 μl of secondary antibody (Fab fragment, peroxidase conjugated anti-mouse IgG obtaining from Amersham) diluted 1:4,000 in wash buffer for two hours at 37° C., then rinsed three times with wash buffer. Following the rinse with washing buffer, the cells were rinsed 3× with PBS. For colourimetric development, the cells were incubated with 100 μl substrate solution (4 mg o-phenylenediamine and 3.3 μl 30% H2O2 in 10 ml 0.1M citrate buffer pH 5.0) for exactly five minutes, R/T, in darkness (under aluminum foil). The reaction was stopped by the addition of 50 μl 4 N H2SO4. […] Out of the five replicates, four were treated with both antibodies, the fifth one was use as a Tgase background control. Tgase levels were determined and expressed as percentage control.
# A suspension of keratinocytes was prepared at a concentration of 3000 cells/200 μl/well in KGM medium (Used 3×10^5 cells/12 ml media in each microtitre plate)
# 200 μl of the keratinocyte suspension was transferred into each of the inner 60 wells only.
# Each plate was incubated at 37° C. and 5% CO2 for 3 days or until cells are ˜50% confluent.
# Stock solutions of the samples were prepared in DMSO.
# The samples were diluted to desired concentration with the final assay concentration of DMSO being 0.1%.
# LRAT = target: T1, LRAT (Bos taurus, UniProt Q9BGL2); test: Assay for LRAT activity, bovine RPE microsomes (to identify B1); format: biochemical; details: for % Inhibition LRAT (10 jm): compound 10 jm
# T1 construct: followed by approximately 15 μg of RPE microsomal protein; tissue W. L. Lawson Co., Lincoln, Nebr., USA (eyecups); host or cells: bovine retinal pigment epithelium microsomes
# T1 sequence (Q9BGL2 1-230): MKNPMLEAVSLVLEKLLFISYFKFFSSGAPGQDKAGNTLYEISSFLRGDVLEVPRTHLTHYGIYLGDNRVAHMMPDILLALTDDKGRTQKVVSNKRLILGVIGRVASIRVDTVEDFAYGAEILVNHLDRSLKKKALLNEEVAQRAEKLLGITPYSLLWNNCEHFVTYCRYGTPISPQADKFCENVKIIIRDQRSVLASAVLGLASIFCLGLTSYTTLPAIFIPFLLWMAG
# Procedure: (§1) 2.1 Isolation of RPE Microsomes (Modified from (1))
# (§2) 50 frozen hemisected bovine eyecups, with the retina and aqueous humor removed were obtained from W. L. Lawson Co., Lincoln, Nebr., USA. The eyes were thawed overnight and the colored iridescent membrane was removed by peeling with forceps. Each eyecup was washed with 2× 0.5 mL cold buffer (0.1M PO4/1 mM DTT/0.25N sucrose, pH 7) by rubbing the darkly pigmented cells with an artist's brush or a rubber policeman. The cell suspension was added to the iridescent membranes and the suspension was stirred for several minutes in a beaker with a Teflon stir bar.
# (§3) The cell homogenate was centrifuged for 30 min. at 20,000 g (Sorvaal model RC-5B centrifuge with an SS34 rotor in 2.5×10 cm tubes at 14,000 RPM). The resulting supernatant was subjected to further centrifugation for 60 min. at 150,000 g (Beckman model L80 Ultracentrifuge with an SW50.1 rotor in 13×51 mm tubes at 40,000 RPM). The resulting pellets were dispersed into ˜5 mL 0.1M PO4/5 mM DTT, pH 7 buffer using a Heat Systems Ultrasonics, Inc. model W185D Sonifier Cell Disrupter, and the resulting microsomal dispersion was aliquoted into small tubes and stored at −70° C. The protein concentrations of the microsomes were determined using the BioRad Dye binding assay, using BSA as a standard.
# (§4) 2.3 Assay for ARAT and LRAT Activity (to Identify B1)
# (§5) The procedure below was a modification of a method described in the literature (2). The following buffer was prepared and stored at 4° C.: 0.1M PO4 5 mM dithiothreitol, pH 7.0 (PO4/DTT). On the day of the assay, 2 mg BSA per mL of buffer was added to give a PO4/DTT/BSA working buffer. 1 mM retinol substrate was prepared in acetonitrile and stored in amber bottles under nitrogen gas at −20° C. Solutions of 4 mM Palmitoyl-CoA in working buffer (stored in aliquots) and 4 mM dilauroyl phosphatidyl choline in ethanol were prepared and stored at −20° C. Inhibitors were prepared as 10 mM stock solutions in H2O, ethanol, acetonitrile or DMSO. The quench solution was prepared using pure ethanol containing 50 μg/mL butylated hydroxytoluene (BHT), and a hexane solution containing 50 μg/mL BHT was used for the extractions.
# (§6) The mixture was incubated for 5 min. at 37° C. to equilibrate the reaction temperature and then 5 μL 1 mM retinol was added. The vials were capped, vortexed for 5 seconds and incubated for 30-90 minutes at 37° C. The reaction was quenched by adding 0.5 mL ethanol/BHT. The retinoids were extracted by adding 3 mL hexane/BHT, vortexing the tubes for several seconds several times and centrifuging the tubes at low speed for 5 min. to quickly separate the layers. The upper hexane layer was removed into a clean vial, and the aqueous layer re-extracted with another 3 mL hexane/BHT, as described above. The hexane layers were combined, and the hexane evaporated by drying at 37° C. under a stream of nitrogen gas on a heated aluminum block. The dried residue was stored at −20° C. until HPLC analysis. The amount of retinyl palmitate and retinyl laurate was quantitated for ARAT and LRAT activity, respectively, by integration of the HPLC signal as described below.
# (§7) Note that the incubation solution contains 40 μM acyl donor, 100 μM or less inhibitor, 10 uM retinol, approximately 30 μg/mL microsomal protein, and nearly 0.17 PO4/pH 7/5 mM DTT/2 mg/mL BSA. All steps subsequent to the addition of retinol were done in the dark or under amber lights.
# (§8) Samples for retinoid quantitation by HPLC were prepared by dissolving the residue in each vial with 100 μL of methanol. […] Aliquots of 60 μL were injected immediately and analysed for retinoid content.
# (§9) Two HPLC protocols were used for retinoid analysis.
# (§10) These protocols were selected based on their ability to clearly resolve pertinent retinoid acids, alcohols, aldehydes, and/or esters for each assay and relative quickness of separation.
# ARAT = test: Assay for ARAT activity, bovine RPE microsomes (to identify B1); format: biochemical; details: for % Inhibition ARAT (100 jm): compound 100 jm; for % Inhibition ARAT (10 jm): compound 10 jm
# Procedure: as §1, §2, §3, §4, §5, §6, §7, §8, §9, §10
# [2] = in the presence of 10^-7M retinol
# [3] = compound tested individually in the presence of 10^-7 M retinol
# [4] = Tgase inhibition, compound tested individually in the presence of 10^-7 M retinol, read-out: IC50
# [5] = Compound 1 alone, in the presence of 10^-7M retinol
# [6] = Compound 2 alone, in the presence of 10^-7M retinol
compound,measurement,setting,value
[…]-Damascone,"TG as % C, Compd 3",[1]; [2],89 % C
"Oc1ccc2ccccc2n1 [Hydroxyquinoline (Carbostyril), 2-Hydroxyquinoline(Carbostyril)]",IC50,"[1]; B5 table, with 10^−7 M retinol, read-out: Overall TG (IC 50)",364 µM
same,"TG as % C, Compd 3",[1]; [2],95 % C
same,IC20,[1]; [3],170 µM
same,IC50,[1]; [4],364 µM
"COc1cc(NS(C)(=O)=O)ccc1Nc1c2ccccc2nc2ccccc12 [Amsacrine, reference compound]",TG as % C Compd 1,[1]; [5],79 % C
same,TG as % C Compd 2,[1]; [6],79 % C
same,IC20,[1]; [3],3.3 µM
same,TG as % C Compd 1,"[1]; compound 1 alone, with retinol",102 % C
C=CC(C)(O)CCC=C(C)C (centres unmarked) [Linalool],inhibition at 100 µM,LRAT; compound 100 jm,0%
CC(=O)c1cc2c(cc1C)C(C)(C)[C@H](C)[C@H]2C(C)C [Traseolide],% Inhibition ARAT (100 jm),ARAT,41%
"O=c1c2cccc3cccc(c32)c2nc3ccccc3n12 [7H-Benzimidazo[2,1-a]Benz[de]-isoquinolin-7-one]","TG as % C, Compd 3",[1]; [2],94 % C
same,IC20,[1]; [3],0.469 µM
CC(C)=CCCC(C)CCO (centres unmarked) [Citronellol],% Inhibition ARAT (100 jm),ARAT,30%
Gamma-Methyl Ionone,% Inhibition LRAT (100 jm),LRAT; compound 100 jm,38%
Dimethyl imidazolinone,TG as % C Compd 2,[1]; [6],87 % C
same,"TG as % C, Compd 3",[1]; [2],87 % C
CCCCC/C=C\C/C=C\CCCCCCCC(=O)NCCO [Linoleoyl Monoethanolamide (LAMEA)],"TG as % C, Compd 3",[1]; [2],127 % C
CC(=O)c1cc2c(cc1C)C(C)(C)C(C)CC2(C)C (centres unmarked) [Tonalid],% Inhibition ARAT (100 jm),ARAT,50%
CCCCCCC(O)CCCCCCCCCCC(=O)O (centres unmarked) [12-Hydroxystearic Acid],"TG as % C, Compd 3",[1]; [2],95 % C
same,IC50,"[1]; Homo sapiens, Keratinocyte, B4 table, with 10^−7 M retinol, read-out: Overall TG (IC 50)",29.1 µM
same,IC20,[1]; [3],14.5 µM
"CCCCCCCCCCC(O)C(=O)NCCO (centres unmarked) [Hydroxyethyl-2-Hydroxy-C12 Amide, N-Hydroxyethyl-2-hydroxydodecyl amide]",IC50,"[1]; B1 table, booster concentration which with 10^−7 M retinol inhibits TGase by 50%, same values in the 19th table (Molar), read-out: Overall TG (IC 50)",32.9 µM
same,IC20,[1]; [3],24 µM
same,IC50,[1]; [4],32.9 µM
CC(C)(O)CCCC1=CCC(C=O)CC1 (centres unmarked) [Lyral],% Inhibition ARAT (100 jm),ARAT,76%
same,TG as % C Compd 1,[1]; [5],97 % C
same,IC20,[1]; [3],40 µM
same,TG as % C Compd 1,"[1]; compound 1 alone, with retinol",120 % C
CCCCCCCCCCCCCC(=O)N(C)CC(=O)O [Myristoyl Sarcosine],% Inhibition ARAT (100 jm),ARAT,41% +/− 14
CCCCCC(N)=O [Hexanoamide],% Inhibition ARAT (100 jm),ARAT,20%
CC(/C=C/C=C(\C)C(=O)O)=C\C=C\C=C(C)\C=C\C=C(/C)C(=O)O [Crocetin],% Inhibition ARAT (10 jm),ARAT,15%
same,% Inhibition ARAT (100 jm),ARAT,34%
same,"TG as % C, Compd 3",[1]; [2],90 % C
same,IC20,[1]; [3],25.2 µM
Dimethyl imidazoline,TG as % C Compd 2,"[1]; compound 2 alone, with retinol",112 % C
Damascenone,% Inhibition LRAT (10 jm),LRAT,29%
same,% Inhibition LRAT (100 jm),LRAT; compound 100 jm,79%
"O=C1CCc2ccccc2N1 [3,4-dihydro-2 quinolinone, 3,4,-Dihydro-2(1H)-quinolinone(Hydrocarbostyril)]",TG as % C Compd 2,"[1]; compound 2 alone, with retinol",102 % C
CCCCCCCCCCCCCCCC(=O)O [Hexadecanoic acid],TG as % C Compd 2,"[1]; compound 2 alone, with retinol",95 % C
CC(C)=CCC/C(C)=C/CC/C(C)=C/CC/C(C)=C/CO [Geranyl Geraniol],% Inhibition ARAT (10 jm),ARAT,38% +/− 12
same,% Inhibition ARAT (100 jm),ARAT,81% +/− 6
CCCCCCCCCCCC(=O)N(C)CC(=O)O [Lauroyl Sarcosine],% Inhibition ARAT (100 jm),ARAT,20%
O=c1ccc2ccccc2o1 [Coumarin],"TG as % C, Compd 3",[1]; [2],80 % C
same,TG as % C Compd 2,"[1]; compound 2 alone, with retinol",96 % C
Coco Trimethyl-ammonium Cl—,% Inhibition ARAT (100 jm),ARAT,27%
Delta-Damascone,% Inhibition LRAT (10 jm),LRAT,64%
same,% Inhibition LRAT (100 jm),LRAT; compound 100 jm,95%
Dimethyl Imidazolidinone,% Inhibition Overall TG (—ROH/RE),[1]; % (booster+retinol inhibition/control inhibition) − % (ROH inhibition/control inhibition),22%
same,TG as % C Compd 1,"[1]; compound 1 alone, with retinol",99 % C

# Source: patent US8409550B2, “Method for treating skin with retinoids and retinoid boosters” (Unilever Home & Personal Care, USA, Division of Conopco, …, priority 2000, dated 2013)
